≈ marks a conversion by molar mass, not a printed value. Where “and” joins values, the source holds several entries; their conditions need not be identical. Identical values can stand only once. Like-named read-outs stand apart in the source and are kept apart here.
How the values were obtained:
B. subtilis [1] = experiment: B. subtilis growth inhibition assay; format: cell-based, Bacillus subtilis; conditions: 12 hours at 37°C, OD600
SaUPPS = biological target: T1, SaUPPS (Staphylococcus aureus, UniProt P60477); experiment: biochemical; format: biochemical
T1 sequence (P60477 1-256): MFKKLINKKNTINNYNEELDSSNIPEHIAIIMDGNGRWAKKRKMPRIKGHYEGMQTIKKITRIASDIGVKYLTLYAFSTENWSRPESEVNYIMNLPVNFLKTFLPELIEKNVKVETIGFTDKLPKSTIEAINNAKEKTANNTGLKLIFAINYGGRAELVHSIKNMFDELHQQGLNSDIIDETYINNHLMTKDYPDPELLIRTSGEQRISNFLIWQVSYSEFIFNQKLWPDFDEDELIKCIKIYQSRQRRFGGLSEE

[2] = biological target: EcUPPP (fusion hybrid of E. coli UPPP with Haloarcula marismortui bacteriorhodopsin) (UniProt P60932+Q5UXY6, D94N); format: biochemical; conditions: read-out: IC50 EcUPPP
[3] = system: Staphylococcus aureus and Bacillus subtilis; experiment: Bacterial cell growth inhibition, bacterium not specified at the place; format: cell-based
B. subtilis [4] = experiment: Synergy/antagonism two-drug combination assay, B. subtilis; format: cell-based, Bacillus subtilis; conditions: for FIC antibiotic / FIC Index / Mean FICI / FIC 7: B. subtilis; for FIC antibiotic: antibiotic in combination with 7, mean±SD duplicate; for FIC Index: combination of the antibiotic with 7, mean±SD; for MIC: Bacillus subtilis
S. aureus = experiment: Synergy/antagonism two-drug combination assay, S. aureus; format: cell-based, Staphylococcus aureus; conditions: for FIC antibiotic / FIC Index / Mean FICI / FIC 7: S. aureus; for FIC antibiotic: antibiotic in combination with 7, mean±SD duplicate; for FIC Index: combination of the antibiotic with 7, mean±SD; for MIC: Staphylococcus aureus
B. subtilis [5] = conditions: earlier work of the authors, no reference given; cited from earlier work
E. coli = conditions: earlier work of the authors, no reference given; cited from earlier work
E. coli UPPS (EcUPPS) = conditions: read-out: IC50 EcUPPS; previous work ref 3b; cited from earlier work
NCI-H460 cells = experiment: H460 cell toxicity; format: cell-based, human; conditions: 24 h, MTT
[6] = system: S. aureus and B. subtilis; experiment: Synergy/antagonism assays, average over B. subtilis and S. aureus combinations; format: cell-based
[7] = 7 with inhibitors targeting cell wall biosynthesis
[8] = 7 with inhibitors targeting nucleic acids and protein biosynthesis

Chain of EcUPPP (fusion hybrid of E. coli UPPP with Haloarcula marismortui bacteriorhodopsin) (P60932 whole entry, looked up, the tested form may be a part): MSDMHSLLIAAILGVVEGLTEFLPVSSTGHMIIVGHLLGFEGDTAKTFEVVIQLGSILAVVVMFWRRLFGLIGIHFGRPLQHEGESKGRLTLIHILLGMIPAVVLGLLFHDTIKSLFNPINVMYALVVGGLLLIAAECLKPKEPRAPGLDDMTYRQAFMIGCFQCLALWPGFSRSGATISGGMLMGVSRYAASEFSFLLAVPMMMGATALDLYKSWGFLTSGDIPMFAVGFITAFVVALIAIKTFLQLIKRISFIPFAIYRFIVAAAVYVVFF
Chain of EcUPPP (fusion hybrid of E. coli UPPP with Haloarcula marismortui bacteriorhodopsin) (Q5UXY6 whole entry, looked up, stated change not applied, the tested form may be a part): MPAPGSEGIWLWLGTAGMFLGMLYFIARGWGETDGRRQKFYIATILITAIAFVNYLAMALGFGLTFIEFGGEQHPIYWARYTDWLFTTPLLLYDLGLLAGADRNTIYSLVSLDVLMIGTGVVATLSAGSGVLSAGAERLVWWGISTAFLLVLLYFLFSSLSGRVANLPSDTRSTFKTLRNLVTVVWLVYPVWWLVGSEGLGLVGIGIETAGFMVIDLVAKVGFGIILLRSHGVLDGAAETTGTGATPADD

2-(N-Methyl-3-(octyloxy)benzamido)phenylphosphonic acid [Compound 31]
ED50 B. subtilis cell growth (B. subtilis [1]): >100 µg/mL | IC50 (SaUPPS; read-out: IC50 SaUPPS, 5 μM FPP, 50 μM IPP, pH 7.5): 39000 nM | IC50 [2]: 6500 nM | antibacterial activity (in words) ([3]; S. aureus and B. subtilis cell growth): little or no antibacterial activity

CC1(C)S[C@@H]2[C@H](NC(=O)[C@H](N)c3ccccc3)C(=O)N2[C@H]1C(=O)O [Ampicillin, ampicillin]
FIC antibiotic (B. subtilis [4]): 0.30 ± 0.072 | FIC Index (B. subtilis [4]): 0.53 ± 0.11 | MIC (B. subtilis [4]; 24 h, read-out: MIC antibiotic): 0.5 µg/mL | FIC antibiotic (S. aureus): 0.41 ± 0.17 | FIC Index (S. aureus): 0.56 ± 0.18 | MIC (S. aureus; 24 h, read-out: MIC antibiotic): 0.5 µg/mL

CC1(C)S[C@@H]2[C@H](NC(=O)C(C(=O)O)c3ccccc3)C(=O)N2[C@H]1C(=O)O (some centres unmarked) [Carbenicillin, carbenicillin]
FIC antibiotic (B. subtilis [4]): 0.22 ± 0.073 | FIC Index (B. subtilis [4]): 0.37 ± 0.10 | MIC (B. subtilis [4]; 24 h, read-out: MIC antibiotic): 5 µg/mL | FIC antibiotic (S. aureus): 0.23 ± 0.048 | FIC Index (S. aureus): 0.30 ± 0.055 | MIC (S. aureus; 24 h, read-out: MIC antibiotic): 15 µg/mL

CO/N=C(\C(=O)N[C@@H]1C(=O)N2C(C(=O)O)=C(COC(C)=O)CS[C@H]12)c1csc(N)n1 [Cefotaxime, cefotaxime]
FIC antibiotic (B. subtilis [4]): 0.17 ± 0.026 | FIC Index (B. subtilis [4]): 0.31 ± 0.085 | MIC (B. subtilis [4]; 24 h, read-out: MIC antibiotic): 2.5 µg/mL | FIC antibiotic (S. aureus): 0.18 ± 0.055 | FIC Index (S. aureus): 0.27 ± 0.063 | MIC (S. aureus; 24 h, read-out: MIC antibiotic): 2 µg/mL

O=C(N[C@H](CO)[C@H](O)c1ccc([N+](=O)[O-])cc1)C(Cl)Cl [Chloramphenicol, chloramphenicol]
FIC antibiotic (B. subtilis [4]): 0.75 ± 0.18 | FIC Index (B. subtilis [4]): 1.72 ± 0.46 | MIC (B. subtilis [4]; 24 h, read-out: MIC antibiotic): 0.5 µg/mL | FIC antibiotic (S. aureus): 0.88 ± 0.47 | FIC Index (S. aureus): 1.69 ± 0.56 | MIC (S. aureus; 24 h, read-out: MIC antibiotic): 5 µg/mL

CCCCCCCCCCOc1cccc(C(=O)Nc2ccc([N+](=O)[O-])cc2C(=O)O)c1 [Compound 6, 2-(3-(decyloxy)benzamido)-5-nitrobenzoic acid]
ED50 against B. subtilis (B. subtilis [5]): 1300 nM | activity against E. coli (in words) (E. coli): no activity | IC50 (E. coli UPPS (EcUPPS)): 3000 nM

CCCCCCCCOc1cccc(C(=O)Nc2ccc(F)cc2C(=O)O)c1 [Compound 7, 5-Fluoro-2-(3-(octyloxy)benzamido)benzoic acid]
ED50 B. subtilis cell growth (B. subtilis [1]): 0.14 µg/mL (≈ 0.361 µM) | IC50 (SaUPPS): 320 nM | toxicity against human cell line NCI-H460 (in words) (NCI-H460 cells): low activity | Mean FICI (B. subtilis [4]; [7]): 0.37 and 0.37 ± 0.14 | Mean FICI (B. subtilis [4]; [8]): 1.47 and 1.47 ± 0.28 | FIC 7 (B. subtilis [4]; with Ampicillin): 0.23 ± 0.084 | FIC 7 (B. subtilis [4]; with Bacitracin): 0.36 ± 0.14 | FIC 7 (B. subtilis [4]; with Carbenicillin): 0.15 ± 0.071 | FIC 7 (B. subtilis [4]; with Cefotaxime): 0.14 ± 0.081 | FIC 7 (B. subtilis [4]; with Chloramphenicol): 0.97 ± 0.42 | FIC 7 (B. subtilis [4]; with Fosfomycin): 0.063 ± 0.022 | FIC 7 (B. subtilis [4]; with Fosmidomycin): 0.13 ± 0.056 | FIC 7 (B. subtilis [4]; with Kanamycin): 0.71 ± 0.30 | FIC 7 (B. subtilis [4]; with Sulfamethoxazole): 0.94 ± 0.64 | FIC 7 (B. subtilis [4]; with Tetracycline): 0.57 ± 0.50 | FIC 7 (B. subtilis [4]; with Trimethoprim): 0.85 ± 0.29 | FIC 7 (B. subtilis [4]; with Vancomycin): 0.17 ± 0.063 | MIC (B. subtilis [4]; read-out: MIC 7): 1 µg/mL | Mean FICI (S. aureus; [7]): 0.32 and 0.32 ± 0.12 | Mean FICI (S. aureus; [8]): 1.42 and 1.42 ± 0.37 | FIC 7 (S. aureus; with Ampicillin): 0.15 ± 0.071 | FIC 7 (S. aureus; with Bacitracin): 0.044 ± 0.019 | FIC 7 (S. aureus; with Carbenicillin): 0.077 ± 0.026 | FIC 7 (S. aureus; with Cefotaxime): 0.084 ± 0.031 | FIC 7 (S. aureus; with Chloramphenicol): 0.81 ± 0.31 | FIC 7 (S. aureus; with Fosfomycin): 0.091 ± 0.034 | FIC 7 (S. aureus; with Kanamycin): 0.83 ± 0.29 | FIC 7 (S. aureus; with Spectinomycin): 0.81 ± 0.32 | FIC 7 (S. aureus; with Sulfamethoxazole): 0.98 ± 0.37 | FIC 7 (S. aureus; with Tetracycline): 0.51 ± 0.24 | FIC 7 (S. aureus; with Trimethoprim): 0.57 ± 0.25 | FIC 7 (S. aureus; with Vancomycin): 0.15 ± 0.062 | MIC (S. aureus; read-out: MIC 7): 1 µg/mL | FICI on average ([6]; with known cell wall biosynthesis inhibitors, n=13 cell/inhibitor combinations): ~ 0.35 | FICI on average ([6]; with non cell-wall biosynthesis inhibitors, n=12 cell/inhibitor combinations): ~ 1.45 | ED50 bacterial growth ([3]; abstract, bacterium not specified): ~ 0.15 μg/mL

C[C@@H]1O[C@@H]1P(=O)(O)O [Fosfomycin, fosfomycin]
FIC antibiotic (B. subtilis [4]): 0.16 ± 0.15 | FIC Index (B. subtilis [4]): 0.22 ± 0.15 | MIC (B. subtilis [4]; 24 h, read-out: MIC antibiotic): 200 µg/mL | FIC antibiotic (S. aureus): 0.20 ± 0.11 | MIC (S. aureus; 24 h, read-out: MIC antibiotic): 200 µg/mL

O=CN(O)CCCP(=O)(O)O [Fosmidomycin, fosmidomycin]
FIC antibiotic (B. subtilis [4]): 0.039 ± 0.0053 | FIC Index (B. subtilis [4]): 0.17 ± 0.056 | FIC Index (B. subtilis [4]; listed as fosmidomycin): 0.17 | MIC (B. subtilis [4]; 24 h, read-out: MIC antibiotic): 5 µg/mL

CN[C@@H]1[C@H](O)[C@H](NC)[C@H]2O[C@@]3(O)C(=O)C[C@@H](C)O[C@H]3O[C@@H]2[C@H]1O [Spectinomycin, spectinomycin]
FIC antibiotic (S. aureus): 0.75 ± 0.43 | FIC Index (S. aureus): 1.56 ± 0.54 | MIC (S. aureus; 24 h, read-out: MIC antibiotic): 40 µg/mL

Cc1cc(NS(=O)(=O)c2ccc(N)cc2)no1 [Sulfamethoxazole, sulfamethoxazole]
FIC antibiotic (B. subtilis [4]): 0.78 ± 0.21 | FIC Index (B. subtilis [4]): 1.72 ± 0.67 | FIC Index (B. subtilis [4]; listed as sulfamethoxazole): 1.72 | MIC (B. subtilis [4]; 24 h, read-out: MIC antibiotic): 200 µg/mL | FIC antibiotic (S. aureus): 0.54 ± 0.13 | FIC Index (S. aureus): 1.53 ± 0.39 | MIC (S. aureus; 24 h, read-out: MIC antibiotic): 200 µg/mL

CN(C)[C@@H]1C(O)=C(C(N)=O)C(=O)[C@@]2(O)C(O)=C3C(=O)c4c(O)cccc4[C@@](C)(O)[C@H]3C[C@@H]12 [Tetracycline, tetracycline]
FIC antibiotic (B. subtilis [4]): 0.48 ± 0.047 | FIC Index (B. subtilis [4]): 1.04 ± 0.50 | MIC (B. subtilis [4]; 24 h, read-out: MIC antibiotic): 5 µg/mL | FIC antibiotic (S. aureus): 0.24 ± 0.11 | FIC Index (S. aureus): 0.75 ± 0.26 | MIC (S. aureus; 24 h, read-out: MIC antibiotic): 0.5 µg/mL

COc1cc(Cc2cnc(N)nc2N)cc(OC)c1OC [Trimethoprim, trimethoprim]
FIC antibiotic (B. subtilis [4]): 0.66 ± 0.13 | FIC Index (B. subtilis [4]): 1.51 ± 0.32 | MIC (B. subtilis [4]; 24 h, read-out: MIC antibiotic): 0.5 µg/mL | FIC antibiotic (S. aureus): 0.69 ± 0.32 | FIC Index (S. aureus): 1.26 ± 0.41 | MIC (S. aureus; 24 h, read-out: MIC antibiotic): 15 µg/mL

CN[C@H](CC(C)C)C(=O)N[C@H]1C(=O)N[C@@H](CC(N)=O)C(=O)N[C@H]2C(=O)N[C@H]3C(=O)N[C@H](C(=O)N[C@H](C(=O)O)c4cc(O)cc(O)c4-c4cc3ccc4O)[C@H](O)c3ccc(c(Cl)c3)Oc3cc2cc(c3O[C@@H]2O[C@H](CO)[C@@H](O)[C@H](O)[C@H]2O[C@H]2C[C@](C)(N)[C@H](O)[C@H](C)O2)Oc2ccc(cc2Cl)[C@H]1O [Vancomycin, vancomycin]
FIC antibiotic (B. subtilis [4]): 0.27 ± 0.24 | FIC Index (B. subtilis [4]): 0.44 ± 0.25 | MIC (B. subtilis [4]; 24 h, read-out: MIC antibiotic): 0.5 µg/mL | FIC antibiotic (S. aureus): 0.14 ± 0.034 | FIC Index (S. aureus): 0.29 ± 0.071 | MIC (S. aureus; 24 h, read-out: MIC antibiotic): 1.5 µg/mL

Source: article PMC5155509 (ChemMedChem, 2016)
